Assay results published in US20190209585A1, “COMBINATION THERAPY COMPRISING A POLYUNSATURATED KETONE AND A SECOSTEROID” (Avexxin AS, priority 2016, published 2019).
Entries after “also recorded” stand apart in the source; their conditions may differ.

Columns and labels:
[1] = tested on: HaCaT cells; assay: Resazurin assay of HaCaT keratinocyte cell proliferation and viability
Description: The spontaneously immortalized, nontumorigenic skin keratinocyte cell line HaCaT was maintained in DMEM supplemented with 5% (v/v) FBS, 0.3 mg/ml glutamine and 0.1 mg/ml gentamicin at 37° C. with 5% CO2 in a humidified atmosphere. Subculture using trypsin-EDTA was performed every 3-4 days with split ratio of 1:3-1:4 to ensure actively proliferating cells.
(§1) Cells were seeded in 96 well plates in fully supplemented medium at a density of 2500 cells per well. Following 72 hours of cultivation, the cells were starved of serum in 0.25% FBS/DMEM overnight to halt proliferation, synchronize and to increase cell sensitivity to treatment. On day 4, the cells were treated with cPLA2α inhibitor Compound A and vitamin D analogue Calcipotriol hydrate (Sigma Aldrich #C4369) and left to incubate for […] in incubator at 37° C. with 5% CO2 in a humidified atmosphere before fluorescence was read at 544 nm excitation and 590 nm emission wavelength. The cells were observed under the microscope to evaluate possible morphology changes and signs of stress before addition of resazurin. The experiments were performed in series of 8 wells per treatment and repeated 2-3 times.
as §1, with “hour” for “hours”, “synchronize the cells” for “synchronize”, “corticosteroid Betamethasone 17, 21-dipropionate (Sigma Aldrich #B1152)” for “cPLA2α inhibitor Compound A”, “#C4369) for 24 hours. On day 5, resazurin was added according to the manufacturer's instruction (RnD Systems, UK)” for “#C4369)”
as §1, with “3000” for “2500”, “48-72 hour” for “72 hours”, “synchronize the cells” for “synchronize”, “Next day,” for “On day 4,”, “compound” for “cPLA2α inhibitor Compound”, “or calcipotriol for 24 hours. Resazurin was added next day according to the manufacturer's instruction (RnD Systems, UK)” for “and vitamin D analogue Calcipotriol hydrate (Sigma Aldrich #C4369)”
The spontaneously immortalized, nontumorigenic skin keratinocyte cell line HaCaT was maintained in DMEM supplemented with 5% (v/v) FBS, 0.3 mg/ml glutamine and 0.1 mg/ml gentamicin at 37° C. with 5% CO2 in a humidified atmosphere. Subculture using trypsin-EDTA was performed every 3-4 days with split ratio of 1:4 to ensure actively proliferating cells.
Cells were seeded in 96 well plates in fully supplemented medium at a density of 3000 cells per well. Following 72 hour of cultivation, the cells were starved of serum in 0.25% FBS/DMEM overnight to halt proliferation, synchronize the cells and to increase cell sensitivity to treatment. Next day, the cells were treated with Compound A, vitamin D analogue Calcipotriol and corticosteroid hormone receptor agonist Betamethasone dipropionate for 24 hours.

[2] = tested on: PGE2 production in PBMC challenged with LPS; assay: PGE2 enzyme immunoassay of supernatants of PBMC challenged with LPS; format: cell-based, human
Description: Blood from healthy, consenting blood donors was collected at St. Olays Hospital HF, Trondheim, Norway.
From each donor, 2×6 ml heparin tubes with blood were used. Peripheral blood mononuclear cells (PBMC) were isolated using 50 mL SepMate™ tubes ([…]™ Technology, UK) and Lymphoprep™ (Fresenius Kabi, N) density gradient according to the manufacturers instructions.
PBMC were resuspended in RPMI-1640 cell culture medium complemented with 5% heat-inactivated fetal bovine serum (FBS), 0.03% glutamine, 0.01 mg/mL gentamicin and 3.4 ppm β-mercaptoethanol (all reagents from Sigma-Aldrich). […]
PGE2 enzyme immunoassay analysis of PBMC supernatants was performed according to the kit protocol (Cayman Chemicals, #514010, USA). […] The plate was read at OD 420 nm using a Cytation 5 imaging reader from BioTek and data acquired with the corresponding software Gen5 2.09. A four-parameter logistic model was fit to the absorbance data to determine PGE2 levels using the Cayman PGE2 protocol. […]
Accordingly, we isolated peripheral blood mononuclear cells, treated them with various doses and combinations of Compound A and calcipotriol and finally added LPS as a trigger to mount a broad inflammatory response. The cell supernatants collected following 72 hrs of LPS stimulation were next analyzed with respect to levels of PGE2, a key proinflammatory mediator close to the cPLA2α target.

Structure (SMILES) | effect on proliferation and viability of HaCaT cells ([1]; Example 1, 10 μM, alone) | effect on HaCaT cell viability ([1]; Example 3/4, 24 hours, 15 μM, alone) | effect on HaCaT cell viability ([1]; Example 3, 24 hours, doses 1-10 μM, alone) | effect on HaCaT cell viability ([1]; Example 4, 10 μM, alone) | cytotoxicity at 10 µM ([1]; Homo sapiens, HaCaT, 24 h, read-out: reduction of cell proliferation and viability) | increase of PGE2 ([2]; calcipotriol 0.5 μM alone) | effect on PGE2 levels ([2]; high doses of calcipotriol alone (<0.5 μM)) | reduction of cell proliferation and viability ([1]; Example 2, 24 hours, 50 μM Betamethasone alone)
C=C1/C(=C\C=C2/CCC[C@]3(C)[C@@H]([C@H](C)/C=C/[C@@H](O)C4CC4)CC[C@@H]23)C[C@@H](O)C[C@@H]1O [Calcipotriol] | little or no effect | affect cell viability; also recorded: reduced cell viability | no signs of impairment in cell viability | no signs of impairment in cell viability | 20% | 18% | PGE2 levels increased | 
CCC(=O)OCC(=O)[C@@]1(OC(=O)CC)[C@@H](C)C[C@H]2[C@@H]3CCC4=CC(=O)C=C[C@]4(C)[C@@]3(F)[C@@H](O)C[C@@]21C [Betamethasone, Betamethasone 17, 21-dipropionate] |  |  |  |  |  |  |  | 10%
